Experimental data published in patent publication US20250206757A1 (GASHERBRUM BIO, INC., priority 2022, published 2025).

target: GLP-1 Receptor (Homo sapiens, UniProt P43220); test: GLP-1R agonist cAMP stimulation assay (HEK293/GLP1R/CRE-LUC cells, HTRF cAMP dynamic 2 kit); assay type: cell-based; conditions: HEK293/CRE-Luc cell line stably expressing the GLP-1 Receptor; 30 min incubation at 37° C.
Method in brief: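 HEK293 cells stably expressing GLP-1R with CRE-Luc, 1000 cells/well in DPBS with 0.5 mM IBMX and 0.10% BSA, exposed to half-log compound dilutions for 30 min at 37 °C. cAMP measured by HTRF (665/615 nm) after 1 h at room temperature.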

GLP-1 Receptor, sequence (P43220 24-463): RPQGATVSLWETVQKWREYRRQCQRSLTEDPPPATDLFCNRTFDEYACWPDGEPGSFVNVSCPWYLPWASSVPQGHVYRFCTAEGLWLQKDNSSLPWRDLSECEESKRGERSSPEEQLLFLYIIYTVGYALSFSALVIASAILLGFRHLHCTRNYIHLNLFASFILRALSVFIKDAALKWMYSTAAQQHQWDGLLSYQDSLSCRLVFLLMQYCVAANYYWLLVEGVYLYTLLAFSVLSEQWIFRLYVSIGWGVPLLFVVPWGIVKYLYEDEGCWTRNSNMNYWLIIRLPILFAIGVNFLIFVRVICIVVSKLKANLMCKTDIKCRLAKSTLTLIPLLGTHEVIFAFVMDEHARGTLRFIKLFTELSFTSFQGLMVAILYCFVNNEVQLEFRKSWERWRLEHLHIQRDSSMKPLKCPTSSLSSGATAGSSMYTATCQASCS

EC50 | Compound
< 1 nM | O=c1[nH]nc(-c2cc3nc(CN4CCc5cc(C(F)(F)F)c(OCc6ccc(Cl)cc6F)nc5C4)n(C[C@@H]4CCO4)c3cn2)o1 [Compound 96, 5-[2-({2-[(4-chloro-2-fluorophenyl)methoxy]-3-(trifluoromethyl)-5,6,7,8-tetrahydro-1,7-naphthyridin-7-yl}methyl)-3-{[(2S)-oxetan-2-yl]methyl}-3H-imidazo[4,5-c]pyridin-6-yl]-2,3-dihydro-1,3,4-oxadiazol-2-one]
1 to 300 nM | Cc1nnc(-c2cnc3c(c2)nc(CN2CCc4cc(C(F)(F)F)c(OCc5ccc(Cl)cc5F)nc4C2)n3C[C@@H]2CCO2)[nH]1 [Compound 67, 2-[(4-chloro-2-fluorophenyl)methoxy]-7-{[6-(5-methyl-4H-1,2,4-triazol-3-yl)-3-{[(2S)-oxetan-2-yl]methyl}-3H-imidazo[4,5-b]pyridin-2-yl]methyl}-3-(trifluoromethyl)-5,6,7,8-tetrahydro-1,7-naphthyridine]
1 to 300 nM | O=C(O)CCn1cc(-c2cnc3c(c2)nc(CN2CCc4cc(C(F)(F)F)c(OCc5ccc(Cl)cc5F)nc4C2)n3C[C@@H]2CCO2)nn1 [Compound 99, 3-{4-[2-({2-[(4-chloro-2-fluorophenyl)methoxy]-3-(trifluoromethyl)-5,6,7,8-tetrahydro-1,7-naphthyridin-7-yl}methyl)-3-{[(2S)-oxetan-2-yl]methyl}-3H-imidazo[4,5-b]pyridin-6-yl]-1H-1,2,3-triazol-1-yl}propanoic acid]
< 1 nM | FC(F)(F)c1nnc(-c2cc3nc(CN4CCc5cc(C(F)(F)F)c(OCc6ccc(Cl)cn6)nc5C4)n(C[C@@H]4CCO4)c3cn2)[nH]1 [Compound 74, 2-[(5-chloropyridin-2-yl)methoxy]-7-[(3-{[(2S)-oxetan-2-yl]methyl}-6-[5-(trifluoromethyl)-4H-1,2,4-triazol-3-yl]-3H-imidazo[4,5-c]pyridin-2-yl)methyl]-3-(trifluoromethyl)-5,6,7,8-tetrahydro-1,7-naphthyridine]
1 to 300 nM | Fc1cc(Cl)ccc1COc1nc2c(cc1C(F)(F)F)CCN(Cc1nc3cc(-c4nnc(C(F)(F)F)[nH]4)ncc3n1C[C@H]1CCCO1)C2 [Compound 78, 2-[(4-chloro-2-fluorophenyl)methoxy]-7-[(3-{1[(2R)-oxolan-2-yl]methyl}-6-[5-(trifluoromethyl)-4H-1,2,4-triazol-3-yl]-3H-imidazo[4,5-c]pyridin-2-yl)methyl]-3-(trifluoromethyl)-5,6,7,8-tetrahydro-1,7-naphthyridine]
> 300 nM | O=c1ccc(-c2cc3nc(CN4CCc5cc(C(F)(F)F)c(OCc6ccc(Cl)cc6F)nc5C4)n(C[C@@H]4CCO4)c3cn2)c[nH]1 [Compound 102, 5-[2-({2-[(4-chloro-2-fluorophenyl)methoxy]-3-(trifluoromethyl)-5,6,7,8-tetrahydro-1,7-naphthyridin-7-yl}methyl)-3-{[(2S)-oxetan-2-yl]methyl}-3H-imidazo[4,5-c]pyridin-6-yl]-1,2-dihydropyridin-2-one]

The next lines start with the compound.

Compound | EC50
Fc1cc(Cl)ccc1COc1nc2c(cc1Cl)CCN(Cc1nc3cc(-c4nnc(C(F)(F)F)[nH]4)nnc3n1C[C@@H]1CCO1)C2 [Compound 7, 3-chloro-2-[(4-chloro-2-fluorophenyl)methoxy]-7-[(7-{[(2S)-oxetan-2-yl]methyl}-3-[5-(trifluoromethyl)-4H-1,2,4-triazol-3-yl]-7H-imidazo[4,5-c]pyridazin-6-yl)methyl]-5,6,7,8-tetrahydro-1,7-naphthyridine] | < 1 nM
CNC(=O)c1ccc2c(nc(CN3CCc4cc(C(F)(F)F)c(OCc5ccc(Cl)cc5F)nc4C3)n2C[C@@H]2CCO2)c1F [Compound 22, 2-({2-[(4-chloro-2-fluorophenyl)methoxy]-3-(trifluoromethyl)-5,6,7,8-tetrahydro-1,7-naphthyridin-7-yl}methyl)-4-fluoro-N-methyl-1-{[(2S)-oxetan-2-yl]methyl}-1H-1,3-benzodiazole-5-carboxamide] | 1 to 300 nM
Cc1cc2c(nc1OCc1c(F)cc(Cl)cc1F)CN(Cc1nc3cc(-c4noc(=O)[nH]4)ncc3n1C[C@@H]1CCO1)CC2 [Compound 34, 3-[2-({2-[(4-chloro-2,6-difluorophenyl)methoxy]-3-methyl-5,6,7,8-tetrahydro-1,7-naphthyridin-7-yl}methyl)-3-{[(2S)-oxetan-2-yl]methyl}-3H-imidazo[4,5-c]pyridin-6-yl]-4,5-dihydro-1,2,4-oxadiazol-5-one] | < 1 nM
Cc1cc2c(nc1OCc1c(F)cc(Cl)cc1F)CN(Cc1nc3cc(-c4nnc(C#N)[nH]4)cnc3n1C[C@@H]1CCO1)CC2 [Compound 41, 5-[2-({2-[(4-chloro-2,6-difluorophenyl)methoxy]-3-methyl-5,6,7,8-tetrahydro-1,7-naphthyridin-7-yl}methyl)-3-{1[(2S)-oxetan-2-yl]methyl}-3H-imidazo[4,5-b]pyridin-6-yl]-4H-1,2,4-triazole-3-carbonitrile] | < 1 nM
O=c1[nH]c(-c2ccc3c(c2)nc(CN2CCc4cc(C(F)(F)F)c(OCc5ccc(Cl)cc5F)nc4C2)n3C[C@@H]2CCO2)no1 [Compound 36, 3-[2-({2-[(4-chloro-2-fluorophenyl)methoxy]-3-(trifluoromethyl)-5,6,7,8-tetrahydro-1,7-naphthyridin-7-yl}methyl)-1-{1[(2S)-oxetan-2-yl]methyl}-1H-1,3-benzodiazol-5-yl]-4,5-dihydro-1,2,4-oxadiazol-5-one] | < 1 nM
Cc1nnc(-c2cc3nc(CN4CCc5cc(C(F)(F)F)c(OCc6ccc(Cl)cc6F)nc5C4)n(C[C@@H]4CCO4)c3cn2)[nH]1 [Compound 62, 2-[(4-chloro-2-fluorophenyl)methoxy]-7-{[6-(5-methyl-4H-1,2,4-triazol-3-yl)-3-{[(2S)-oxetan-2-yl]methyl}-3H-imidazo[4,5-c]pyridin-2-yl]methyl}-3-(trifluoromethyl)-5,6,7,8-tetrahydro-1,7-naphthyridine] | < 1 nM
NC(=O)c1nnc(-c2cc3nc(CN4CCc5cc(C(F)(F)F)c(OCc6ccc(Cl)cc6F)nc5C4)n(C[C@@H]4CCO4)c3cn2)[nH]1 [Compound 43, 5-[2-({2-[(4-chloro-2-fluorophenyl)methoxy]-3-(trifluoromethyl)-5,6,7,8-tetrahydro-1,7-naphthyridin-7-yl}methyl)-3-{[(2S)-oxetan-2-yl]methyl}-3H-imidazo[4,5-c]pyridin-6-yl]-4H-1,2,4-triazole-3-carboxamide] | < 1 nM
Cc1cc2c(nc1OCc1c(F)cc(Cl)cc1F)CN(Cc1nc3cc(-c4nnc(C(F)(F)F)[nH]4)ncc3n1C[C@@H]1CCO1)CC2 [Compound 55, 2-[(4-chloro-2,6-difluorophenyl)methoxy]-3-methyl-7-[(3-{1[(2S)-oxetan-2-yl]methyl}-6-[5-(trifluoromethyl)-4H-1,2,4-triazol-3-yl]-3H-imidazo[4,5-c]pyridin-2-yl)methyl]-5,6,7,8-tetrahydro-1,7-naphthyridine] | < 1 nM
O=C(O)c1ccc2c(nc(CN3CCc4cc(C(F)(F)F)c(OCc5ccc(Cl)cc5F)nc4C3)n2C[C@@H]2CCO2)c1F [Compound 27, 2-({2-[(4-chloro-2-fluorophenyl)methoxy]-3-(trifluoromethyl)-5,6,7,8-tetrahydro-1,7-naphthyridin-7-yl}methyl)-4-fluoro-1-{[(2S)-oxetan-2-yl]methyl}-1H-1,3-benzodiazole-5-carboxylic acid] | 1 to 300 nM
Cc1nnc(-c2cc3nc(CN4CCc5cc(C(F)(F)F)c(OCc6ccc(Cl)cc6)nc5C4)n(C[C@@H]4CCO4)c3cn2)[nH]1 [Compound 61, 2-[(4-chlorophenyl)methoxy]-7-{[6-(5-methyl-4H-1,2,4-triazol-3-yl)-3-{1[(2S)-oxetan-2-yl]methyl}-3H-imidazo[4,5-c]pyridin-2-yl]methyl}-3-(trifluoromethyl)-5,6,7,8-tetrahydro-1,7-naphthyridine] | < 1 nM
O=c1[nH]c(-c2cnc3c(c2)nc(CN2CCc4cc(C(F)(F)F)c(OCc5ccc(Cl)cc5F)nc4C2)n3C[C@@H]2CCO2)no1 [Compound 29, 3-[2-({2-[(4-chloro-2-fluorophenyl)methoxy]-3-(trifluoromethyl)-5,6,7,8-tetrahydro-1,7-naphthyridin-7-yl}methyl)-3-{[(2S)-oxetan-2-yl]methyl}-3H-imidazo[4,5-b]pyridin-6-yl]-4,5-dihydro-1,2,4-oxadiazol-5-one] | < 1 nM
Cc1cc2c(nc1OCc1c(F)cc(Cl)cc1F)CN(Cc1nc3nc(-c4noc(=O)[nH]4)ccc3n1C[C@@H]1CCO1)CC2 [Compound 50, 3-[2-({2-[(4-chloro-2,6-difluorophenyl)methoxy]-3-methyl-5,6,7,8-tetrahydro-1,7-naphthyridin-7-yl}methyl)-1-{1[(2S)-oxetan-2-yl]methyl}-1H-imidazo[4,5-b]pyridin-5-yl]-4,5-dihydro-1,2,4-oxadiazol-5-one] | < 1 nM
N#Cc1nnc(-c2cc3nc(CN4CCc5cc(Cl)c(OCc6ccc(Cl)cc6F)nc5C4)n(C[C@@H]4CCO4)c3cn2)[nH]1 [Compound 8, 5-[2-({3-chloro-2-[(4-chloro-2-fluorophenyl)methoxy]-5,6,7,8-tetrahydro-1,7-naphthyridin-7-yl}methyl)-3-{[(2S)-oxetan-2-yl]methyl}-3H-imidazo[4,5-c]pyridin-6-yl]-4H-1,2,4-triazole-3-carbonitrile] | < 1 nM
Fc1cc(Cl)ccc1COc1nc2c(cc1C(F)(F)F)CCN(Cc1nc3sc(-c4nnc(C(F)(F)F)[nH]4)cc3n1C[C@@H]1CCO1)C2 [Compound 59, 2-[(4-chloro-2-fluorophenyl)methoxy]-7-[(1-{[(2S)-oxetan-2-yl]methyl}-5-[5-(trifluoromethyl)-4H-1,2,4-triazol-3-yl]-1H-thieno[2,3-d]imidazol-2-yl)methyl]-3-(trifluoromethyl)-5,6,7,8-tetrahydro-1,7-naphthyridine] | < 1 nM
